In ChEMBL document CHEMBL4130385, “Structure-function studies of BPP-BrachyNH2 and synthetic analogues thereof with Angiotensin I-Converting Enzyme” (Eur J Med Chem, 2017):

What was measured:
[1] = biological target: T1, Angiotensin-converting enzyme (Rattus norvegicus, UniProt P47820); assay: Inhibition of Wistar rat plasma angiotensin 1-converting enzyme using H-hippuryl-His-Leu-OH as substrate after 20 mins by fluorescence assay
T1 sequence (P47820 whole entry): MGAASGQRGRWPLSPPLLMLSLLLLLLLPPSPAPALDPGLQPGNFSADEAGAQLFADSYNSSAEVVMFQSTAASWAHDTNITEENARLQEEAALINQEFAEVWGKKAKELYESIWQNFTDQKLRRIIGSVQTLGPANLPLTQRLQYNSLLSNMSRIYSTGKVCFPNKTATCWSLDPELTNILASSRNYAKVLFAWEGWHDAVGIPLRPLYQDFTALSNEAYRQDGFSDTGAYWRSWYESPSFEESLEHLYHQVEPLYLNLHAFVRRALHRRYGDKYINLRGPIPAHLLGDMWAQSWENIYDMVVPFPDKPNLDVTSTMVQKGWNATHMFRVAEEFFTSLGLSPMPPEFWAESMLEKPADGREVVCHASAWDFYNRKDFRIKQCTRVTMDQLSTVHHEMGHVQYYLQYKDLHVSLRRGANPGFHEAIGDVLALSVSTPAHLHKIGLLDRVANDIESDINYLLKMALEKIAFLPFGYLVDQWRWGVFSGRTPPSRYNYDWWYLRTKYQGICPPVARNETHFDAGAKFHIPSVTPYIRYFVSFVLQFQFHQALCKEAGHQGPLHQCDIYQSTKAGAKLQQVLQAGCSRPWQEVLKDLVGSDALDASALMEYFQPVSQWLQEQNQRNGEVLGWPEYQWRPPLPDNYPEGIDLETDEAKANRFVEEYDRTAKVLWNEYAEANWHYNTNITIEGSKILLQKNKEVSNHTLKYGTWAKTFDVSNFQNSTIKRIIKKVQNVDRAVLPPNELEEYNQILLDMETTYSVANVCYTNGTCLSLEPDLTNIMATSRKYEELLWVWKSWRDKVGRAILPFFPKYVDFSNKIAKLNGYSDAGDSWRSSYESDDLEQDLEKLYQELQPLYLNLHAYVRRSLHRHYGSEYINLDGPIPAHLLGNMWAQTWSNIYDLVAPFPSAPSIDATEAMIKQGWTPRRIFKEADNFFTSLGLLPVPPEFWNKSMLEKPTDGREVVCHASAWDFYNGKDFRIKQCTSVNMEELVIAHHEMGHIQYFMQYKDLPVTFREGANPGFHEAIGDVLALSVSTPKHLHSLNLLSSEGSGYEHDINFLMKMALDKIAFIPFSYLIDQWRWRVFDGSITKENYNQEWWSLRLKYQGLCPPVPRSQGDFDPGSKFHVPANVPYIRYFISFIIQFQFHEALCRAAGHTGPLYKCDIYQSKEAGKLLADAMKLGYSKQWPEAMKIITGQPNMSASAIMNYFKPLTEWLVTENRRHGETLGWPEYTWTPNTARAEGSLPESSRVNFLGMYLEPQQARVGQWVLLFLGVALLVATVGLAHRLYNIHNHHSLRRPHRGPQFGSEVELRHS

[2] = (§1) Cytotoxicity against BALB/c mouse peritoneal macrophages assessed as reduction in cell viability after 48 hrs by MTT assay; format: cell-based, Peritoneal macrophage; conditions: BALB/c, peritoneal macrophages
Peritoneal macrophage [3] = assay: as §1; format: cell-based; conditions: peritoneal macrophage, 48 h
Erythrocyte = assay: Hemolytic activity against sheep blood erythrocytes at 10^-6 to 10^-4 M after 1 hr; format: ADME, cell-based, Ovis aries
Peritoneal macrophage [4] = assay: Cytotoxicity against BALB/c mouse peritoneal macrophages assessed as reduction in cell viability at 10^-4 M after 48 hrs by MTT assay relative to control; format: cell-based; conditions: 100 µM
Peritoneal macrophage [5] = assay: Cytotoxicity against BALB/c mouse peritoneal macrophages assessed as reduction in cell viability at 5 x 10^-4 M after 48 hrs by MTT assay relative to control; format: cell-based; conditions: 500 µM

Row | IC50 [1] | Substance | CC50 at 48 h [2] | Activity (Peritoneal macrophage [3]) | Activity (Erythrocyte) | Activity (Peritoneal macrophage [4]) | Activity (Peritoneal macrophage [5])
1 | 17.5 µM | H-PPPKVSP-NH2 | 81.9 µM | Dose-dependent effect | Non-Toxic |  | 
2 | 162 µM | H-WPPPKVS-NH2 | 33600 µM |  | Non-Toxic | 7.7% | 14.8%
3 | 5.51 µM | H-WPPPKVSP-NH2 | 176 µM | Dose-dependent effect | Non-Toxic |  | 
